Experimental data as given in US10568822B2, “Melanogenesis inhibitor comprising d-pantothenyl alcohol, and skin-whitening cosmetic containing same melanogenesis inhibitor” (POLA CHEMICAL INDUSTRIES, INC., priority 2014, dated 2020).

Key:
[1] = system: human normal melanocytes; assay: Melanogenesis inhibition experiment (14C-2-thiouracil incorporation); format: cell-based; details: for Melanin Amount (%) Sample (2): 1% plant extract or 0.1 μg/mL existing skin-whitening compound alone, ratio to control; for synergistic effect of a melanogenesis inhibitory action: in combination with D-pantothenyl alcohol, conclusion from Table 2
Procedure: According to the method described below, 2-thiouracil (^14C-labeled 2-thiouracil in the present test) which is specifically incorporated into melanin in the melanin synthesis process within cells was used to evaluate the melanogenesis inhibitory action. With a complete medium for melanocyte culture (Invitrogen Corporation) used in a 24-well plate, human normal melanocytes (Kurabo Industries, Ltd.) were seeded in each well at a concentration of 6.0×10^4 cells/well/0.5 mL. Under a 5% carbon dioxide atmosphere, the culture was conducted at 37° C. for 24 hours. Then, replacement was made such that a 0.5 mL medium containing D-pantothenyl alcohol at 0 mM or 1 mM was in each of three wells for each concentration and, to these […] wells, 0.5 μCi/well of 2-[2-^14C] thiouracil (Daiichi Clarity Co., Ltd.) was further added. And it was further cultured for 3 days under the same conditions as the aforementioned culture conditions. After completion of the culture, the culture medium was removed from each well, which was washed with PBS (phosphate-buffered saline), and the number of cells was measured using the WST-8 reagent (Dojindo Laboratories). The WST-8 reagent was removed from each well, which was washed with PBS, and using 100 (w/v) % trichloroacetic acid (Wako Pure Chemical Industries, Ltd.), the cells were separated from the bottom of the wells, to which water was then added for dilution so that the concentration of the trichloroacetic acid could be 10 (w/v) %, and which were allowed to stand in a refrigerator for 30 minutes. After the cells were recovered by centrifugation, the amount of ^14C-thiouracil in the cells recovered from each well was measured with a liquid scintillation counter (Aloka Co., Ltd.).
Relative to the radiation doses of the cells cultured in the media containing 0 mM D-pantothenyl alcohol (control), the radiation doses of the cells cultured in the media containing 1 mM D-pantothenyl alcohol were each obtained in percentage as the amount of melanin (%). In other words, it is possible to determine that the smaller the radiation dose incorporated into each cell is, the smaller the amount of melanin is, and accordingly, it is possible to determine that the melanin inhibition titer of the added ingredient is larger.
(§1) While 0 mM or 0 μM D-pantothenyl alcohol was used as a control similarly, the 1 mM D-pantothenyl alcohol in <Experiment 1> was replaced with each of the following samples (1) to (3) for experimenting.

[2] = system: human normal keratinocytes; assay: Keratinocyte cell proliferation experiment (WST-8); format: cell-based; details: for Cell Proliferation Rate (%) Sample (2): 1% plant extract or 0.1 μg/mL existing skin-whitening compound alone, ratio to control; for synergistic effect of a keratinocyte cell proliferation action: in combination with D-pantothenyl alcohol, conclusion from Table 2
Procedure: According to the method described below, the cell proliferation promoting action was evaluated. With a complete medium for keratinocyte culture (Kurabo Industries, Ltd.) used in a 24-well plate, human normal keratinocytes (Kurabo Industries, Ltd.) were seeded in each well at a concentration of 1.0×10^4 cells/well/1 mL. Under a 5% carbon dioxide atmosphere, the culture was conducted at 37° C. for 24 hours. Then, replacement was made such that a 1 mL medium containing D-pantothenyl alcohol at 0 μM, 15 μM, or 150 μM was in each of three wells for each concentration. And it was further cultured for 2 days under the same conditions as the aforementioned culture conditions. After completion of the culture, 20 μL of the WST-8 reagent (Dojindo Laboratories) was added to each well, and color reaction was allowed at 37° C. for 3 hours. After the reaction, absorbances at 450 nm and 650 nm were measured using a microplate reader, Benchmark Plus (Bio-Rad Laboratories), and the 450 nm absorbance measurement minus the 650 nm absorbance measurement was calculated to give a cell proliferation measurement.
Relative to the cell proliferation measurements for the wells cultured in the media containing 0 μM D-pantothenyl alcohol (control), the cell proliferation measurements for the wells cultured in the media containing D-pantothenyl alcohol were each obtained in percentage as a cell proliferation rate (%). In other words, it is possible to determine that the larger the absorbance value is, the higher the cell proliferation rate is, and accordingly, it is possible to determine that the cell proliferation promotion titer of the added ingredients is larger.
as §1
In addition, the 15 μM and the 150 μM D-pantothenyl alcohol in <Experiment 2> were replaced with the aforementioned samples (1) to (3) respectively for experimenting. Note that the amount of melanin (%) and the cell proliferation rate (%) in Table 2 are both a ratio to the control, as described in Experiment 1 and Experiment 2.

Question: CCCCc1ccc(O)cc1O [4-n-butyl resorcinol] was tested. Which “Melanin Amount (%) Sample (2)” value [1] did it give?
Answer: Its value is 93.2%.

Question: What about the “synergistic effect of a melanogenesis inhibitory action” value [1] of the same compound?
Answer: The value was “synergistic effect”.

Question: And the “Cell Proliferation Rate (%) Sample (2)” value [2]?
Answer: The value was 120.3%.

Question: And the “synergistic effect of a keratinocyte cell proliferation action” value [2]?
Answer: Its value is “synergistic effect”.

Question: Which “Melanin Amount (%) Sample (2)” value [1] does the source give for c1ccc(C(c2ccccc2)(c2ccccc2)n2ccnc2)cc1 [Compound 1, 1-(triphenylmethyl) imidazole] here?
Answer: The value was 93.1%.

Question: And the “synergistic effect of a melanogenesis inhibitory action” value [1]?
Answer: Its value is “synergistic effect”.

Question: And the “Cell Proliferation Rate (%) Sample (2)” value [2]?
Answer: The value was 112.1%.

Question: And the “synergistic effect of a keratinocyte cell proliferation action” value [2]?
Answer: Its value is “synergistic effect”.

Question: With O=C(N[C@@H](CO)C(=O)O)c1ccccc1 [Compound 31, N-benzoyl-L-serine] as the compound, how does the “Melanin Amount (%) Sample (2)” value [1] read?
Answer: The value was 94.6%.

Question: What about the “synergistic effect of a melanogenesis inhibitory action” value [1] of the same compound?
Answer: The value was “synergistic effect”.

Question: And the “Cell Proliferation Rate (%) Sample (2)” value [2]?
Answer: Its value is 118.7%.

Question: What about the “synergistic effect of a keratinocyte cell proliferation action” value [2] of the same compound?
Answer: Its value is “synergistic effect”.

Question: How did the “Melanin Amount (%) Sample (2)” value [1] turn out when CSCCC(NC(=O)c1ccc(C)cc1)C(=O)O (stereo not shown) [Compound 45, N-(toluyl) methionine] was run?
Answer: Its value is 93.4%.

Question: And the “Cell Proliferation Rate (%) Sample (2)” value [2]?
Answer: Its value is 113.2%.

Question: Which results are given for CC(C)(CO)[C@@H](O)C(=O)NCCCO [D-pantothenyl alcohol]?
Answer: Melanin Amount (%) Sample (1) ([1]; 1 mM D-pantothenyl alcohol alone, ratio to 0 mM control): 69.8%; melanogenesis inhibitory action ([1]; Experiment 1, 1 mM vs 0 mM, FIG. 1, result in words): has a melanogenesis inhibitory action; Cell Proliferation Rate (%) Sample (1) ([2]; 1 mM D-pantothenyl alcohol alone, ratio to 0 μM control): 123.3%; keratinocyte cell proliferation action ([2]; Experiment 2, 15 μM or 150 μM vs 0 μM, FIG. 2, result in words): has a keratinocyte cell proliferation action

Question: For C[C@H]1[C@H](C)CC[C@]2(C(=O)O)CC[C@]3(C)C(=CC[C@@H]4[C@@]5(C)CCC(OP(=O)(O)O)C(C)(C)[C@@H]5CC[C@]43C)[C@H]12 (stereo partly shown) [Ursolic acid phosphate ester, ursolic acid phosphate ester], which “Melanin Amount (%) Sample (2)” value [1] is on record?
Answer: The value was 98.4%.

Question: And the “synergistic effect of a melanogenesis inhibitory action” value [1]?
Answer: Its value is “synergistic effect”.

Question: What about the “Cell Proliferation Rate (%) Sample (2)” value [2] of the same compound?
Answer: Its value is 118.6%.

Question: And the “synergistic effect of a keratinocyte cell proliferation action” value [2]?
Answer: Its value is “synergistic effect”.
